Laboratory results as given in PubChem BioAssay (NCI).
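Method: 48-hour compound exposure of cells in 96-well plates, five concentrations, linear interpolation of endpoints. At the TGI there is no net growth.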

How the values were obtained:
Assay in all cases: NCI anticancer screen, dose series, 48 h
DMS 273 small cell lung = tested on: DMS 273 small cell lung
KM20L2 colon = tested on: KM20L2 colon
TK-10 renal = tested on: TK-10 renal
A549 NSCLC = tested on: A549 NSCLC
LXFL 529 NSCLC = tested on: LXFL 529 NSCLC
DMS 114 small cell lung = tested on: DMS 114 small cell lung
KM12 colon = tested on: KM12 colon
HOP-18 NSCLC = tested on: HOP-18 NSCLC
SNB-78 CNS = tested on: SNB-78 CNS
HT29 colon = tested on: HT29 colon
XF 498 CNS = tested on: XF 498 CNS
DLD-1 colon = tested on: DLD-1 colon
M19-MEL melanoma = tested on: M19-MEL melanoma

Row | Compound | TGI (DMS 273 small cell lung) [µM] | TGI (KM20L2 colon) [µM] | TGI (TK-10 renal) [µM] | TGI (A549 NSCLC) [µM] | TGI (LXFL 529 NSCLC) [µM] | TGI (DMS 114 small cell lung) [µM] | TGI (KM12 colon) [µM] | TGI (HOP-18 NSCLC) [µM] | TGI (SNB-78 CNS) [µM] | TGI (HT29 colon) [µM] | TGI (XF 498 CNS) [µM] | TGI (DLD-1 colon) [µM] | TGI (M19-MEL melanoma) [µM]
1 | CC1(C)C(O)C[C@@H](O)[C@@]2(C)C1CC[C@]1(C)C2C[C@@H](O)[C@@H]2C([C@@]3(C)CC[C@@H](C(C)(C)O)O3)CCC21C (some centres undefined) | 27.7 | 31.2 | > 62.1 | 37 | 22.4 | 29.1 | 30.6 | 31.1 | 43.8 | 31.6 | 33.7 | 31.5 | –
2 | CO[C@@H]1C=C[C@@]23c4cc5c(cc4C(=O)O[C@H]2CN(C)[C@H]3C1)OCO5 | > 100 | > 100 | > 100 | > 100 | > 100 | > 100 | > 100 | > 100 | > 100 | > 100 | > 100 | > 100 | > 100
3 | COC1=CCC=C(C[C@@H]2NCCc3cc(OC)c(OC)cc32)C1 | > 100 | > 100 | > 100 | > 100 | > 100 | – | > 100 | – | > 100 | > 100 | > 100 | > 100 | > 100
4 | CC(C)(C)OC(=O)NCCc1cccc2c1oc1c(CCC(=O)O)cccc12 | > 100 | > 100 | > 100 | > 100 | > 100 | > 100 | > 100 | > 100 | > 100 | > 100 | > 100 | > 100 | > 100
5 | C=C[C@@H]1C[C@]2(C(=O)OC)Cc3nc4ccccc4nc3CC(C(=O)OC)=C2O1 | – | – | > 100 | > 100 | – | – | > 100 | – | – | > 100 | – | – | –
6 | CCc1c(Cc2[nH]c(Cc3[nH]c(C=O)c(C)c3CC)c(CC)c2CC)[nH]c(C=O)c1C | > 100 | > 100 | > 100 | > 100 | > 100 | > 100 | – | > 100 | > 100 | > 100 | > 100 | > 100 | > 100
7 | CCOC(=O)CSc1nnc2cc(CN3CCCC3)c(-c3ccc(Cl)cc3)nn12 | – | – | > 100 | > 100 | – | – | > 100 | – | – | > 100 | – | – | –
